Read-outs that look alike come from different tables or passages of the source.
Columns and labels:
[1] = design: species or system Spraig Dawley Rats; conditions: rat, in vivo
Protocol: (§1) Twenty-four hours prior to measurement the animals were injected either with a control solution, (carrier vehicle), or various concentrations of the exogenous chromophore, tin ethyl etiopurpurin, (SnET2). SnET2 is a synthetic chlorophyll analogue used in photodynamic light therapy (PDT) that has a relatively weak fluorescence emission, (Quantum yield of 0.01), an emission peak at 670 nm, and a maximum absorption/excitation at 440 nm. At measurement time the animals where anesthetized and then surgically opened to allow measurement of the fluorescence in various tissues. The measurement system used had the following characteristics:
(a) A single fiber was used to deliver excitation light;
(b) Excitation light was derived from a HeCd laser at 442 nm, […] total power delivered to the tissue;
(c) The excitation light was delivered to the target tissue by means of a fiber optic. Fluorescent light emitted by both exogenous and endogenous chromophores in the target tissue was conducted back to the measuring instrument by means of a bundle of smaller optical fibers surrounding the fiber delivering excitation light to the target tissue. Some of these fiber where directed to one PMT (photomultiplier tube) detector filtered for a 570 nm endogenous autofluorescence while the others (12 fibers) were coupled to a PMT filtered at 670 nm for detecting the SnET2 emission;
(d) Autoranging of the gains of the PMTs over five decades;
(e) A display of the 570 (Autofluorescence), 670 (SnET2),signals and the ratio of the two;
(f) An internal reference standard for setting the gain of each PMT prior to each use;
(g) Computer data storage.
The system operates by a foot paddle or a panel button. Activating either one causes the 23 system to take a reading in 1.6 seconds and store it in the display and computer memory. Prior to each use the illuminating probe excitation output is set to 1 mw but this is not necessary due to the ratioing concept.
(§2) A small correction can be made for the endogenous autofluorescence by subtracting the control values from the drug containing tissue to give a NET RATIO. This method permits compensation for background tissue difference while permitting accurate and sensitive measurement of the exogenous chromophore presence in the tissue. Chemical extraction of the SnET2 from the tissue allows correlation of the in-vivo drug concentration to the Ratio signal as shown in Table 3 below. Such a correlation would not be accurate or easily done with out using the Ratio concept.

[2] = design: species or system Spraig Dawley Rats; conditions: rat, in vivo, 24 h
Protocol: as §1, §2

skin cancers [3] = test: In vivo fluorescence kinetics in a human subject with skin cancers (tumor and normal sites); conditions: 0.4 mg/kg SnET2, human subject
Protocol: (§3) FIG. 1 presents data from an actual human subject injected with SnET2 for the treatment of a number of skin cancers. A number of normal i.e. control sites, and tumor sites were measured prior to the SnET2 injection, (0.4 mg/kg) and at various times post injection. […] In summary, it is clear from the data provided that the method employing the measurement of the intensity of the exogenous chromophore fluorescence to the autofluorescence of a tissue provide a more accurate means for measuring the pharmacokinetics of an exogenous fluorescing chromophore in vivo. The finding is novel and to the inventor's knowledge has not been taught or acknowledged by others either in a patent or publication. Though the method was discovered and developed during the performance of work associated with photodynamic diagnosis and therapy, the utilization of the present method extends to other types of phototherapy. Any application requiring the in vivo monitoring of rate of change of concentration of a fluorescence chromophore in a tissue could use the present method. For example the in vivo pharmacokinetics of fluorescence labeled monoclonal antibodies for diagnostic or therapeutic application, and certain fluorescent antibiotics such as tetracycline, detection of highly proliferating atherosclerosis, among others. […]

skin cancers [4] = test: Photodynamic therapeutic response to red light in a human subject; type: in vivo; conditions: 0.4 mg/kg SnET2, human subject
Protocol: as §3

Net Ratio, kidney ([1]; 1 mg/kg): 1.73 ± 0.42 | Net Ratio, liver ([1]; 1 mg/kg): 17.8 ± 2.15 | Net Ratio, kidney ([1]; 2 mg/kg): 2.48 ± 0.14 | Net Ratio, liver ([1]; 2 mg/kg): 30.0 ± 5.5 | Net Ratio, kidney ([1]; 4 mg/kg): 4.24 ± 0.90 | Net Ratio, liver ([1]; 4 mg/kg): 50.1 ± 12.8 | Extraction (tissue drug concentration), kidney ([2]; 1 mg/kg): 1.87 ± 0.14 µg/g | Extraction (tissue drug concentration), liver ([2]; 1 mg/kg): 13.2 ± 0.91 µg/g | Extraction (tissue drug concentration), kidney ([2]; 2 mg/kg): 3.56 ± 0.11 µg/g | Extraction (tissue drug concentration), liver ([2]; 2 mg/kg): 27.2 ± 2.5 µg/g | Extraction (tissue drug concentration), kidney ([2]; 4 mg/kg): 5.49 ± 0.54 µg/g | Extraction (tissue drug concentration), liver ([2]; 4 mg/kg): 59.2 ± 8.9 µg/g | SnET2 fluorescence at 670 nm with site and time (FIG. 2) (skin cancers [3]; unratioed signal): greatly varies with site and time
SMILES: CCOC(=O)C1=Cc2c3nc(cc4nc(cc5[n-]c(cc6[n-]c2c(C)c6CC)c(C)c5CC)C(C)=C4CC)[C@@H](C)[C@]13CC.[Cl-].[Cl-].[Sn] (racemic) [SnET2, tin ethyl etiopurpurin]
drug uptake in tumors versus control/normal sites (Net Ratio, FIG. 3) (skin cancers [3]): the tumors take up the drug significantly more than the control/normal sites | response to red light exposure (skin cancers [4]): gave a response correlating to the magnitude of the ratio signal

Source: patent publication US5572996A, “In vivo pharmacokinetics of photosensitive drugs and method” (PDT Systems, Inc., priority 1996, dated 1996)
